Assay [1] deals with T1, Carbonic anhydrase 2 (Homo sapiens, UniProt P00918).
For assay [2], the target named is T2, Carbonic anhydrase 9 (Homo sapiens, UniProt Q16790).
Assay [3] has as its target Carbonic anhydrase 1 (Homo sapiens, UniProt P00915).
The target in assay [4] is T3, Monocarboxylate transporter 1 (Homo sapiens, UniProt P53985).
T3 sequence (P53985 whole entry): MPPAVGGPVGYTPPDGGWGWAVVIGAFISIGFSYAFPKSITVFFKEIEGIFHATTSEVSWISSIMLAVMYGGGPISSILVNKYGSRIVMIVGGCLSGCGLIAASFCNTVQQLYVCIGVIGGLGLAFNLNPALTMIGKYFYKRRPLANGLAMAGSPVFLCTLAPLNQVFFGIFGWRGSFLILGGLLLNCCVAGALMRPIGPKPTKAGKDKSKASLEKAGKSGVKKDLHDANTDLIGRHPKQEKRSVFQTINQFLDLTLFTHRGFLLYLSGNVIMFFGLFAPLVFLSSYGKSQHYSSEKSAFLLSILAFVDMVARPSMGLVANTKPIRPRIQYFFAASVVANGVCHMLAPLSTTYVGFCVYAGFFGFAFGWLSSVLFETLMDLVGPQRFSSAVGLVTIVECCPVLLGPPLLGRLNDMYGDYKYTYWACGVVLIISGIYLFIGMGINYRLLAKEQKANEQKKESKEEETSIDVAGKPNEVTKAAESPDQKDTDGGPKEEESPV

In assay [5] the test system is SK-MEL. Kind of assay: cells. Conditions: Homo sapiens.
Assay [6] deals with KB. The assay is described as follows: cells. Conditions: Homo sapiens.
In assay [7] the test system is BT-549. The assay is described as follows: cells. Conditions: Homo sapiens.
For assay [8], the system named is SK-OV-3. The assay is described as follows: cells. Conditions: Homo sapiens.
In assay [9] the target is T3, Monocarboxylate transporter 1. This is another data set of the same source.
Assay [10] concerns the target T4, Monocarboxylate transporter 4 (Homo sapiens, UniProt O15427).
T4 sequence (O15427 whole entry): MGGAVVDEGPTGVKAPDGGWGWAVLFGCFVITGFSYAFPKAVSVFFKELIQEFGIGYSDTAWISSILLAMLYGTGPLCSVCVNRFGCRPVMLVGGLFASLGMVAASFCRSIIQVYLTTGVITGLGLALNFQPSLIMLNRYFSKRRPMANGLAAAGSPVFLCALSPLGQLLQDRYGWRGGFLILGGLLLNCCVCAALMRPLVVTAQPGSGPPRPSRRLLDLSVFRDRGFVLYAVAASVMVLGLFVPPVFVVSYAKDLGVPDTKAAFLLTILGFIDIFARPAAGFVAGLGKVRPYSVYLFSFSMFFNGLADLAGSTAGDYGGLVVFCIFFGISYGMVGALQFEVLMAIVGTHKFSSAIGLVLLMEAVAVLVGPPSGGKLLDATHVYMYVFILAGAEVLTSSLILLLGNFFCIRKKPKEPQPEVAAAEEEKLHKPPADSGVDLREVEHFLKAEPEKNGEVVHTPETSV

For assay [11], the target named is T1, Carbonic anhydrase 2. This is another data set of the same source.
Assay [12] has as its target T2, Carbonic anhydrase 9. The source holds these as a separate data set.
In assay [13] the target is T1, Carbonic anhydrase 2. This is another data set of the same source.
Assay [14] deals with T2, Carbonic anhydrase 9. The source holds these as a separate data set.
For assay [15], the target named is T2, Carbonic anhydrase 9. This is another data set of the same source.
Assay [16] concerns MCF7. Kind of assay: cells. Conditions: Homo sapiens, MCF7, 96 h.
The subject of assay [17] is MCF7. Kind of assay: cells. Conditions: Homo sapiens, MCF7, 72 h.
Assay [18] deals with T4, Monocarboxylate transporter 4. The source holds these as a separate data set.
For assay [19], the target named is T3, Monocarboxylate transporter 1. The source holds these as a separate data set.
The target in assay [20] is 72 kDa type IV collagenase (Homo sapiens, UniProt P08253). The assay is described as follows: Inhibition of MMP2 (unknown origin).
Sequence of 72 kDa type IV collagenase (P08253 whole entry): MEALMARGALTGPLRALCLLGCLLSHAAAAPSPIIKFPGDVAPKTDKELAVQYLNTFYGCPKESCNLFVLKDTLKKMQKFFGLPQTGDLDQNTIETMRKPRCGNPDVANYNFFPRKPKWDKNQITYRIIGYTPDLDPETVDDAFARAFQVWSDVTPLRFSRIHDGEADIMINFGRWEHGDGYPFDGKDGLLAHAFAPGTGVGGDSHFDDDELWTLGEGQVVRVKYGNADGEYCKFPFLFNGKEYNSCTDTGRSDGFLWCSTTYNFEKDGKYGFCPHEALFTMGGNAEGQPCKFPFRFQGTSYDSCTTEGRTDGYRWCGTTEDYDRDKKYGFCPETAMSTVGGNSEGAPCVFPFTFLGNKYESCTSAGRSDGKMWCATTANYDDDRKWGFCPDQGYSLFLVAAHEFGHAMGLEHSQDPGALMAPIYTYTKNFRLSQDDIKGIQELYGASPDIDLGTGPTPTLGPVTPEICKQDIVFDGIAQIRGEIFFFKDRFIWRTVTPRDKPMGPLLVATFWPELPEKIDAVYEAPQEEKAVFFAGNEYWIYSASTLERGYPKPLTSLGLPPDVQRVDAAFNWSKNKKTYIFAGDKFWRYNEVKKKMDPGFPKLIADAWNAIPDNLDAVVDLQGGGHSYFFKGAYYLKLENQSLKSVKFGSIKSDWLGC
For assay [21], the target named is T2, Carbonic anhydrase 9. The source holds these as a separate data set.
The target in assay [22] is T1, Carbonic anhydrase 2. This is another data set of the same source.
Assay [23] concerns the target T2, Carbonic anhydrase 9. The source holds these as a separate data set.
Assay [24] deals with MCF7. The assay is described as follows: cells. Conditions: Homo sapiens, MCF7, 72 h. This is another data set of the same source.
Assay [25] concerns the target T3, Monocarboxylate transporter 1. This is another data set of the same source.
Assay [26] shares this target. This is another data set of the same source.
The target of assay [27] is T4, Monocarboxylate transporter 4. This is another data set of the same source.

In brackets after ≈: the same amount, converted by molar mass. A value given as a limit tells only on which side of the number the result lay.

Sequence of Carbonic anhydrase 1 (P00915 whole entry): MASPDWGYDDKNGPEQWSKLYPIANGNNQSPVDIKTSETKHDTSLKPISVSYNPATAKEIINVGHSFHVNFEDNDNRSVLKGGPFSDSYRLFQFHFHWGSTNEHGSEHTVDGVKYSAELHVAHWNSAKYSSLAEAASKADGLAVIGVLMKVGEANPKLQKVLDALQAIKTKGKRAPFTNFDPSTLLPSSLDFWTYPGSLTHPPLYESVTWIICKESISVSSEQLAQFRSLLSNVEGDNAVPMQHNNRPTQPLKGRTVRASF

Broadly, the Ki is a dissociation constant, usually derived from enzyme kinetics or from competition with a known ligand. High values mean lower affinity, low ones higher affinity. In general, IC50 refers to the concentration needed to halve the response being measured. For the compound `NS(=O)(=O)c1ccc(N=C2C(=O)Nc3ccccc32)cc1`, the Ki in [1] was 33 nM; in assay [2], 6.5 nM. Besides, the IC50 in assay [3] amounted to 65 nM.

In assay [4], `CN(Cc1ccccc1)c1ccc2cc(C(=O)O)c(=O)oc2c1` had an IC50 of 59 nM.

Turning to `COc1cc(/C=C/C(=O)O)ccc1OCc1cn(-c2cccc([N+](=O)[O-])c2)nn1`, the IC50 in assay [5] is 9 µg/mL (≈ 22.7 µM); in [6] it was 8 µg/mL (≈ 20.2 µM); in assay [7], 9.4 µg/mL (≈ 23.7 µM); in assay [8] it was above 10 µg/mL.

`O=C(Nc1ccccc1C(=O)O)c1cc(S(=O)(=O)c2ccccc2)ccc1Cl`: the IC50 in [9] is 85 nM; in [10], above 50000 nM.

Consider `CC(C)(O)[C@@H](O)COc1c2occc2cc2ccc(=O)oc12`, for which the inhibition constant Ki in assay [11] was above 10000 nM; in [12] it was 27.5 nM; in assay [13] it was above 10000 nM; in assay [14], 27.5 nM.

`C=C(C)[C@@H]1CC[C@]2(COS(N)(=O)=O)CC[C@]3(C)[C@H](CC[C@@H]4[C@@]5(C)CC[C@H](OC(C)=O)C(C)(C)[C@@H]5CC[C@]43C)[C@@H]12` displayed a Ki in assay [15] of 1.25 nM. Besides, the IC50 in [16] is 7020 nM; in [17], 11100 nM.

As for `CC[C@](C)(OCc1cc(-c2cccc(OC3CC3)c2)n(-c2ccccc2N2CCC2)n1)C(=O)O`, the IC50 in assay [18] was found to be 0.36 nM; in assay [19], 64000 nM.

As for `N[C@H](CNC(=O)P(=O)(O)O)CNS(=O)(=O)c1ccc(Oc2ccccc2)cc1`, the IC50 in assay [20] was determined as 15000 nM; in [21], 6220 nM.

On to `CC(C)n1nc(C(=O)Nc2ccc3c(c2)C=CS(=O)(=O)O3)c2ccccc21`, for which the inhibition constant Ki is above 10000 nM in [22] and 215 nM in [23].

In the case of `C=C(C)[C@@H]1CC[C@]2(C(=O)O)CC[C@]3(C)[C@H](CC[C@@H]4[C@@]5(C)CC[C@H](O)C(C)(C)[C@@H]5CC[C@]43C)[C@@H]12` [BETULINIC ACID], the IC50 was 14000 nM in assay [16] and 16400 nM in assay [24].

The compound `CC(C)(OCc1nn(Cc2ccccc2)c2ccccc12)C(=O)O` [BINDARIT] displayed a Ki in assay [25] above 500000 nM.

Turning to `CCOC(=O)Oc1c(OC)cc(C(=O)O[C@@H]2C[C@@H]3CN4CCc5c([nH]c6cc(OC)ccc56)[C@H]4C[C@@H]3[C@H](C(=O)OC)[C@H]2OC)cc1OC` [SYROSINGOPINE], the IC50 in assay [26] was determined as 2500 nM; in [27], 40 nM.

For the origin of these results see ChEMBL document CHEMBL5512616, “pH regulators and their inhibitors in tumor microenvironment” (Eur J Med Chem, 2024).
